Tests used:
Assay type in all cases: in vivo
[1] = tested on: barnyardgrass (Echinochloa crus-galli); assay: Test B flooded paddy test; conditions: Rate 1000 g/ha, scale of 0 to 100 where 0 is no effect and 100 is complete control, visually evaluated after 13 to 15 days
Experimental: (§1) At the same time, plants selected from these crop and weed species and also blackgrass (Alopecurus myosuroides), wheat (Triticum aestivum) and wild oat (Avena fatua) were treated with postemergence applications of test chemicals formulated in the same manner. Plants ranged in height from 2 to 18 cm (1- to 4-leaf stage) for postemergence treatments. Plant species in the flooded paddy test consisted of rice (Oryza saliva), smallflower flatsedge (Cyperus difformis), duck salad (Heteranthera limosa) and barnyardgrass (Echinochloa crus-galli) grown to the 2-leaf stage for testing. Treated plants and controls were maintained in a greenhouse for 13 to 15 days, after which time all species were compared to controls and visually evaluated. Plant response ratings, summarized in Table B, are based on a scale of 0 to 100 where 0 is no effect and 100 is complete control. A dash (-) response means no test result.

[2] = tested on: duck salad (Heteranthera limosa); assay: Test B flooded paddy test; conditions: Rate 1000 g/ha, scale of 0 to 100 where 0 is no effect and 100 is complete control, visually evaluated after 13 to 15 days
Experimental: as §1

rice (Oryza saliva) [3] = assay: Test B flooded paddy test; conditions: Rate 1000 g/ha, scale of 0 to 100 where 0 is no effect and 100 is complete control, visually evaluated after 13 to 15 days
Experimental: as §1

[4] = tested on: smallflower flatsedge (Cyperus difformis); assay: Test B flooded paddy test; conditions: Rate 1000 g/ha, scale of 0 to 100 where 0 is no effect and 100 is complete control, visually evaluated after 13 to 15 days
Experimental: as §1

[5] = tested on: barnyardgrass (Echinochloa crus-galli); assay: Test C flooded paddy test; conditions: for Plant response rating, Barnyardgrass: scale 0 to 100 (0 no effect, 100 complete control)
Procedure, shortened: (§2)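 Visually assessed vs untreated controls 12–14 d post-treatment (greenhouse). Flooded paddy plants were at the 2-leaf stage; scale 0 = no effect, 100 = complete control.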

[6] = tested on: duck salad (Heteranthera limosa); assay: Test C flooded paddy test; conditions: for Plant response rating, Ducksalad: scale 0 to 100 (0 no effect, 100 complete control)
Procedure, shortened: as §2

rice (Oryza saliva) [7] = assay: Test C flooded paddy test; conditions: for Plant response rating, Rice: scale 0 to 100 (0 no effect, 100 complete control)
Procedure, shortened: as §2

[8] = tested on: smallflower flatsedge (Cyperus difformis); assay: Test C flooded paddy test; conditions: for Plant response rating, Flatsedge: scale 0 to 100 (0 no effect, 100 complete control)
Procedure, shortened: as §2

[9] = tested on: barnyardgrass (Echinochloa crus-galli); assay: Test B preemergence
Procedure, shortened: (§3)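 Seeds were planted and sprayed preemergence with test chemical in a non-phytotoxic solvent mixture containing surfactant; postemergence plants (2 to 18 cm, 1- to 4-leaf stage) received the same formulation. Greenhouse hold 13 to 15 days, then visual rating versus untreated controls on a 0–100 scale (0 no effect, 100 complete control).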

[10] = tested on: lambsquarters (Chenopodium album); assay: Test B preemergence
Procedure, shortened: as §3

[11] = tested on: morning glory (Ipomoea hederacea); assay: Test B preemergence
Procedure, shortened: as §3

[12] = tested on: pigweed (Amaranthus retroflexus); assay: Test B preemergence
Procedure, shortened: as §3

[13] = tested on: cocklebur (Xanthium strumarium); assay: Test B preemergence
Procedure, shortened: as §3

[14] = tested on: Surinam grass (Brachiaria decumbens); assay: Test B preemergence
Procedure, shortened: as §3

rice (Oryza saliva) [15] = assay: Test B preemergence
Procedure, shortened: as §3

[16] = tested on: velvetleaf (Abutilon theophrasti); assay: Test B preemergence
Procedure, shortened: as §3

corn (Zea mays) [17] = assay: Test B preemergence
Procedure, shortened: as §3

[18] = tested on: giant foxtail (Setaria faberii); assay: Test B preemergence
Procedure, shortened: as §3

[19] = tested on: crabgrass (Digitaria sanguinalis); assay: Test B preemergence
Procedure, shortened: as §3

[20] = tested on: barnyardgrass (Echinochloa crus-galli); assay: Test B postemergence
Procedure, shortened: as §3

[21] = tested on: lambsquarters (Chenopodium album); assay: Test B postemergence
Procedure, shortened: as §3

[22] = tested on: blackgrass (Alopecurus myosuroides); assay: Test B postemergence
Procedure, shortened: as §3

[23] = tested on: morning glory (Ipomoea hederacea); assay: Test B postemergence
Procedure, shortened: as §3

[24] = tested on: wheat (Triticum aestivum); assay: Test B postemergence
Procedure, shortened: as §3

[25] = tested on: pigweed (Amaranthus retroflexus); assay: Test B postemergence
Procedure, shortened: as §3

[26] = tested on: cocklebur (Xanthium strumarium); assay: Test B postemergence
Procedure, shortened: as §3

wild oat (Avena fatua) = assay: Test B postemergence
Procedure, shortened: as §3

[27] = tested on: Surinam grass (Brachiaria decumbens); assay: Test B postemergence
Procedure, shortened: as §3

[28] = tested on: velvetleaf (Abutilon theophrasti); assay: Test B postemergence
Procedure, shortened: as §3

corn (Zea mays) [29] = assay: Test B postemergence
Procedure, shortened: as §3

[30] = tested on: giant foxtail (Setaria faberii); assay: Test B postemergence
Procedure, shortened: as §3

[31] = tested on: crabgrass (Digitaria sanguinalis); assay: Test B postemergence
Procedure, shortened: as §3

[32] = Flooded Paddy, Rate 500 g/ha, scale 0 to 100, 0 no effect, 100 complete control
[33] = flooded paddy test, Rate 125 g/ha
[34] = flooded paddy test, Rate 250 g/ha
[35] = flooded paddy test, Rate 62 g/ha, visually evaluated after 12 to 14 days, 0 = no effect, 100 = complete control
[36] = Preemergence, Rate 500 g/ha, scale 0 to 100, 0 no effect, 100 complete control
[37] = preemergence, Rate 125 g/ha, scale of 0 to 100 where 0 is no effect and 100 is complete control, 13 to 15 days
[38] = Rate 125 g/ha, scale 0 to 100, 0 no effect, 100 complete control
[39] = Rate 500 g/ha, scale 0 (no effect) to 100 (complete control), 13 to 15 days

COc1cccc(N2CCC(n3ccc(C(C)(C)C)n3)C2=O)c1 (centres unmarked) [Compound 57]
100: Plant response rating, Barnyardgrass [1] | Plant response rating, Ducksalad [2] | Plant response rating, Flatsedge [4]
90: Plant response rating, Rice (rice (Oryza saliva) [3])

CC(C)(C)c1ccn(C2CCN(c3ccc(F)c(C(F)(F)F)c3)C2=O)n1 (centres unmarked) [Compound 146]
0: Plant response rating, Morningglory [11, 37] | Plant response rating, Cocklebur [13, 36] | Plant response rating, Cocklebur [13, 37] | Plant response rating, Rice (rice (Oryza saliva) [15]; [36]) | Plant response rating, Rice (rice (Oryza saliva) [15]; [37]) | Plant response rating, Velvetleaf [16, 37] | Plant response rating, Corn (corn (Zea mays) [17]; [36]) | Plant response rating, Corn (corn (Zea mays) [17]; [37]) | Plant response rating, Barnyardgrass [20, 38] | Plant response rating, Blackgrass [22, 38] | Plant response rating, Blackgrass [22, 39] | Plant response rating, Morningglory [23, 38] | Plant response rating, Morningglory [23, 39] | Plant response rating, Wheat [24, 38] | Plant response rating, Wheat [24, 39] | Plant response rating, Pigweed [25, 38] | Plant response rating, Cocklebur [26, 38] | Plant response rating, Cocklebur [26, 39] | Plant response rating, Wild Oat (wild oat (Avena fatua); [38]) | Plant response rating, Wild Oat (wild oat (Avena fatua); [39]) | Plant response rating, Surinam grass [27, 38] | Plant response rating, Surinam grass [27, 39] | Plant response rating, Velvetleaf [28, 38] | Plant response rating, Velvetleaf [28, 39] | Plant response rating, Corn (corn (Zea mays) [29]; [38]) | Plant response rating, Corn (corn (Zea mays) [29]; [39]) | Plant response rating, Foxtail, Giant [30, 38] | Plant response rating, Crabgrass [31, 38]
70: Plant response rating, Pigweed [25, 39] | Plant response rating, Foxtail, Giant [30, 39]
95: Flatsedge plant response rating [8, 32] | Plant response rating, Flatsedge [8, 33] | Plant response rating, Flatsedge [8, 34]
75: Plant response rating (scale 0 to 100), Barnyardgrass [5, 35]
40: Plant response rating (scale 0 to 100), Ducksalad [6, 35] | Plant response rating, Morningglory [11, 36] | Plant response rating, Surinam grass [14, 37]
100: Barnyardgrass plant response rating [5, 32] | Plant response rating, Barnyardgrass [5, 33] | Plant response rating, Barnyardgrass [5, 34] | Plant response rating, Barnyardgrass [9, 36] | Plant response rating, Lambsquarters [10, 36] | Plant response rating, Lambsquarters [10, 37] | Plant response rating, Pigweed [12, 36] | Plant response rating, Pigweed [12, 37] | Plant response rating, Surinam grass [14, 36] | Plant response rating, Foxtail, Giant [18, 36] | Plant response rating, Foxtail, Giant [18, 37] | Plant response rating, Crabgrass [19, 36] | Plant response rating, Crabgrass [19, 37] | Plant response rating, Lambsquarters [21, 39]
60: Plant response rating (scale 0 to 100), Flatsedge [8, 35] | Plant response rating, Crabgrass [31, 39]
20: Plant response rating, Velvetleaf [16, 36]
65: Plant response rating, Ducksalad [6, 33]
90: Ducksalad plant response rating [6, 32] | Plant response rating, Barnyardgrass [9, 37] | Plant response rating, Barnyardgrass [20, 39]
50: Plant response rating, Rice (rice (Oryza saliva) [7]; [33]) | Plant response rating, Rice (rice (Oryza saliva) [7]; [34])
15: Plant response rating (scale 0 to 100), Rice (rice (Oryza saliva) [7]; [35])
85: Rice plant response rating (rice (Oryza saliva) [7]; [32])
80: Plant response rating, Ducksalad [6, 34] | Plant response rating, Lambsquarters [21, 38]
